Measured values taken from US20170150719A1, “FUNGICIDAL PYRAZOLES AND THEIR MIXTURES” (E I DU PONT DE NEMOURS AND COMPANY, priority 2010, published 2017).
Marks after values point to notes of the source that are not given here.

Key:
Septoria nodorum = assay: Test E: Septoria glume blotch, preventive spray on wheat seedlings, visual disease rating; details: 100 = 100% disease control; for Test E rating (% disease control): Septoria glume blotch on wheat, preventive spray, rating without asterisk; for Test E rating (disease control): Septoria glume blotch
[1] = system: Blumeria graminis f. sp. tritici; assay: Test I: wheat powdery mildew, preventive spray on wheat seedlings, visual disease rating; details: for Test I rating (% disease control): preventive spray, rating without asterisk
Botrytis cinerea = assay: Test A: tomato Botrytis, preventive spray on tomato seedlings, visual disease rating; details: 100 = 100% disease control; for Test A rating (% disease control) / Test A rating (disease control): tomato Botrytis; for Test A rating (% disease control): preventive spray, 0 = no control relative to controls, rating without asterisk
[2] = system: Puccinia recondita f. sp. tritici; assay: Test H: wheat leaf rust, preventive spray on wheat seedlings, visual disease rating; details: 100 = 100% disease control; for Test H rating (% disease control) / Test H rating (disease control): wheat leaf rust; for Test H rating (% disease control): preventive spray, rating without asterisk; for Test H rating (disease control): sprayed the day before inoculation
Alternaria solani = assay: Test B: tomato early blight, preventive spray on tomato seedlings, visual disease rating; details: for Test B rating (% disease control) / Test B rating (disease control): tomato early blight, 100 = 100% disease control; for Test B rating (% disease control): preventive spray, rating without asterisk; for Test B rating (disease control): 0 = no disease control relative to the controls
Septoria tritici = assay: Test F: wheat leaf blotch, preventive spray on wheat seedlings, visual disease rating; format: in vivo; details: 100 = 100% disease control; for Test F rating (% disease control): preventive spray, rating without asterisk
Text: (§1) A hyphen (-) indicates no test results.

[3] = system: Puccinia recondita f. sp. tritici; assay: Test G: wheat leaf rust, spray after inoculation (curative) on wheat seedlings, visual disease rating; format: in vivo; details: 100 = 100% disease control; for Test G rating (% disease control): spray after inoculation, rating without asterisk
Text: as §1

[4] = sprayed after inoculation, 0 = no disease control
[5] = wheat powdery mildew, 100 = 100% disease control
[6] = 0 = no disease control relative to the controls
[7] = wheat powdery mildew, 100 = 100% disease control, 0 = no disease control relative to the controls

Row | SMILES | Test E rating (% disease control) (Septoria nodorum) | Test I rating (% disease control) [1, 5] | Test A rating (% disease control) (Botrytis cinerea) | Test H rating (% disease control) [2] | Test B rating (% disease control) (Alternaria solani) | Test F rating (% disease control) (Septoria tritici) | Test G rating (% disease control) [3] | Test E rating (disease control) (Septoria nodorum; [6]) | Test I rating (disease control) [1, 7] | Test A rating (disease control) (Botrytis cinerea; [6]) | Test H rating (disease control) ([2]; 0 = no disease control) | Test B rating (disease control) (Alternaria solani) | Test F rating (disease control) (Septoria tritici; [6]) | Test G rating (disease control) [3, 4] | further results
1 | Cc1nn(C)c(Nc2c(F)cc(C#N)cc2F)c1-c1ccc(F)cc1Cl [Compound 25, 4-[[4-(2-chloro-4-fluorophenyl)-1,3-dimethyl-1H-pyrazol-5-yl]amino]-3,5-difluorobenzonitrile] | – | – | – | – | – | – | – | – | – | – | – | – | – | – | pest or weed control at 200 µg/mL (Septoria nodorum; Parastagonospora nodorum, in Triticum aestivum, read-out: Test E rating (disease control), Septoria glume blotch, 0 = no disease control relative to the controls): 95%; pest or weed control at 200 µg/mL ([1]; Blumeria graminis, in Triticum aestivum, read-out: Test I rating (disease control), wheat powdery mildew, 100 = 100% disease control, 0 = no disease control relative to the controls): 100%; pest or weed control at 200 µg/mL (Botrytis cinerea; Botrytis cinerea, in Solanum lycopersicum, read-out: Test A rating (disease control), tomato Botrytis, 0 = no disease control relative to the controls): 100%; pest or weed control at 200 µg/mL ([2]; read-out: Test H rating (disease control), wheat leaf rust, sprayed the day before inoculation, 0 = no disease control): 100%; pest or weed control at 200 µg/mL (Alternaria solani; Alternaria solani, in Solanum lycopersicum, read-out: Test B rating (disease control)): 99%; pest or weed control at 200 µg/mL (Septoria tritici; Zymoseptoria tritici, 0 = no disease control relative to the controls): 99%; pest or weed control at 200 µg/mL [3, 4]: 0%
2 | Cc1nn(C)c(Nc2c(F)cc(F)cc2Cl)c1-c1ccc(Cl)cc1F [compound 228] | 0% | 81% | 68% | 96% | 40% | 100% | 0% | – | – | – | – | – | – | – | –
3 | COc1cc(F)c(Nc2c(-c3ccc(F)cc3F)c(C)nn2C)c(F)c1 [compound 12] | – | – | – | – | – | – | – | 0% | 82% | 100% | 94% | 0% | 93% | 0% | –
4 | Cc1nn(C)c(Nc2c(F)cc(F)cc2F)c1-c1ccccc1F [compound 53] | – | – | – | – | – | – | – | 87% | 99% | 97% | 95% | 99% | 100% | 0% | –
5 | Cc1nn(C)c(Nc2c(F)cc(Br)cc2Br)c1-c1ccc(F)cc1Cl [compound 212] | 100% | 100% | 98% | 100% | 100% | 100% | 97% | – | – | – | – | – | – | – | –
6 | Cc1nn(C)c(Oc2ccc(C#N)cc2F)c1-c1c(F)cc(F)cc1F [compound 27] | – | – | – | – | – | – | – | 99% | 100% | 99% | 99% | 99% | 100% | 9% | –
7 | Cc1nn(C)c(Oc2ccc(C#N)cc2F)c1-c1c(F)cccc1Cl [compound 116] | – | – | – | – | – | – | – | 99% | 100% | 100% | 100% | 33% | 100% | 0% | –
8 | Cc1nn(C)c(Nc2c(Cl)cc(Cl)cc2Cl)c1-c1ccc(F)cc1Cl [compound 170] | – | – | – | – | – | – | – | 0% | 79% | 65% | 98% | 0% | 100% | 79% | –
9 | COc1cc(Cl)c(Nc2c(-c3ccc(F)cc3Br)c(C)nn2C)c(Cl)c1 [compound 102] | – | – | – | – | – | – | – | 0% | – | 98% | 94% | 0% | 98% | 0% | Test I rating (disease control), value marked * ([1]; wheat powdery mildew, rating marked with asterisk (*), not explained in the text shown): 95* %
10 | Cc1nn(C)c(Nc2c(F)cc(I)cc2F)c1-c1ccc(F)cc1Cl [compound 217] | 86% | 99% | 100% | 99% | 58% | 100% | 41% | – | – | – | – | – | – | – | –
